Measured values as given in ChEMBL document CHEMBL1134007, “Synthesis and structure-activity relationships of 1-phenylpyrazoles as xanthine oxidase inhibitors” (Bioorg Med Chem Lett, 2001).

Tests used:
[1] = Tmax determined after 0.3 mg/kg oral administration in potassium oxonate treated rats; format: ADME, organism-based; design: dose 0.3 mg/kg, route oral; details: rat, in vivo
[2] = test system: Rattus norvegicus; assay: Tested for hypouricemic effect in potassium oxonate (uricase inhibitor) treated (po) rats for 0-24 hr expressed as ED20; format: functional
[3] = test system: Rattus norvegicus; assay: Tested for hypouricemic effect in potassium oxonate (uricase inhibitor) treated (po) rats for 0-6 hr expressed as ED20; format: functional
[4] = Tmax determined after 3 mg/kg oral administration in potassium oxonate treated rats; format: ADME, organism-based; design: dose 3 mg/kg, route oral; details: rat, in vivo
[5] = In vivo CL/F determined; format: ADME, organism-based; details: rat
[6] = test system: Rattus norvegicus; assay: Tested for hypouricemic effect in potassium oxonate (uricase inhibitor) treated (po)rats for 0-6 hr expressed as ED20; format: functional
[7] = biological target: T1, Xanthine dehydrogenase/oxidase (Bos taurus, UniProt P80457); assay: In vitro inhibitory concentration against Xanthine oxidase
[8] = biological target: T1, Xanthine dehydrogenase/oxidase; assay: In vitro percent inhibition against Xanthine oxidase at concentration of 10000 nmol/L

T1 sequence (P80457 whole entry): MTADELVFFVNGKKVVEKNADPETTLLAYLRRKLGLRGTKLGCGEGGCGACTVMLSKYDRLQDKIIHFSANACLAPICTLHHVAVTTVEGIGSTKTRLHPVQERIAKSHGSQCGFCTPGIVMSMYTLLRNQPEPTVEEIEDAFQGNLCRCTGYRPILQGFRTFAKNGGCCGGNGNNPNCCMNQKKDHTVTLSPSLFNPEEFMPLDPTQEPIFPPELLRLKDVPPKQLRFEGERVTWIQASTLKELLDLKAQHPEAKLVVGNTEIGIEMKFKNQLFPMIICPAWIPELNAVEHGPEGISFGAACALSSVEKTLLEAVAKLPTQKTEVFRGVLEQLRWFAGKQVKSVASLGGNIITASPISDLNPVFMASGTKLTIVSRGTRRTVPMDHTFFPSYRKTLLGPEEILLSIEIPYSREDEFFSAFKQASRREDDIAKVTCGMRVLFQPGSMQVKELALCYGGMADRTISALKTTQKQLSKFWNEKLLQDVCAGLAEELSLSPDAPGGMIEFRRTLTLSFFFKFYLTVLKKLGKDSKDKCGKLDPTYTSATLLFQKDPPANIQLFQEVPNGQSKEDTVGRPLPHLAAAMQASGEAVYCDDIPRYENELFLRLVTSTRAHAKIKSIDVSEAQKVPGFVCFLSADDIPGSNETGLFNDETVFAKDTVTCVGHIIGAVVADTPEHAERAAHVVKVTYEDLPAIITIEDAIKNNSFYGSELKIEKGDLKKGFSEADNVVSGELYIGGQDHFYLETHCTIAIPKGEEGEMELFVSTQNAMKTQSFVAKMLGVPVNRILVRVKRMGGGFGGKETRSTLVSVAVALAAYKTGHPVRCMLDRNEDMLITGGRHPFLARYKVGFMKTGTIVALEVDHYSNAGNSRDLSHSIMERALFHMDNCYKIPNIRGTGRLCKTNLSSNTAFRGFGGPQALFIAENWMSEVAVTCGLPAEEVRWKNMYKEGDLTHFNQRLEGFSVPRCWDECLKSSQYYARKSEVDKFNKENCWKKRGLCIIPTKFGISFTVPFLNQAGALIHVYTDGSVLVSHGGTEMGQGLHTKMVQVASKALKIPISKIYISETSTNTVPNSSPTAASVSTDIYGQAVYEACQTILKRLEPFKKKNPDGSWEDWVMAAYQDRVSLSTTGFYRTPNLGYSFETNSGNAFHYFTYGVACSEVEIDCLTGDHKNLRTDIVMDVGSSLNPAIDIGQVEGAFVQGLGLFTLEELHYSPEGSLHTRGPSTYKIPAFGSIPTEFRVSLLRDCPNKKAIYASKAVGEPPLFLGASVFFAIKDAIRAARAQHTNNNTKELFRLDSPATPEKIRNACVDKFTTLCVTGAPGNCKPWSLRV

Compound	IC50 [7] [nM]	inhibition at 10 µM [8] [%]	ED20 [2] [mg/kg]	further results
CC(C)COc1ccc(-n2cc(C(=O)O)cn2)cc1C#N	–	–	> 10	Tmax [1]: 1.1 h; ED20 [3]: 2.5 mg/kg; Tmax [4]: 1.3 h; CL/F [5]: 9.83 mL/min/kg
Oc1ncnc2[nH]ncc12 [ALLOPURINOL]	–	–	> 10	ED20 [6]: 3.5 mg/kg
CC(C)(C)COc1ccc(-n2cc(C(=O)O)cn2)cc1C#N	–	–	1.4	Tmax [1]: 3.5 h; ED20 [3]: 0.55 mg/kg; Tmax [4]: 3.5 h; CL/F [5]: 2 mL/min/kg
CN(C)CCOc1ccc(-n2cc(C(=O)O)cn2)cc1C#N	700	–	–	–
N#Cc1cc(-n2cc(C(=O)O)cn2)ccc1OCC(=O)O	1500	–	–	–
COc1ccc(-n2cc(C(=O)O)cn2)cc1	–	< 50	–	–
O=C(O)c1cnn(-c2ccc(Cl)cc2)c1	–	< 50	–	–

The next lines start with results.

IC50 [7] [nM]	inhibition at 10 µM [8] [%]	Compound	ED20 [2] [mg/kg]	further results
460	–	COc1ccc(-n2cc(C(=O)O)cn2)cc1C#N	–	–
–	< 50	CCOC(=O)c1cnn(-c2ccc(OCC(C)C)c(C#N)c2)c1	–	–
33	–	CC(C)COc1ccc(-n2cc(C(=O)O)cn2)cc1[N+](=O)[O-]	–	–
